In brackets after ≈: the same amount, converted by molar mass.
Tested on: measles virus
Assay: microbe, parasite or virus in culture
Details: Measles morbillivirus, 24 h

| Structure (SMILES) | MIC50 [µM] |
| --- | --- |
| CCOc1nn(-c2ncc(CC)cn2)c(C)c1Oc1ccccc1 [example 72, 2-(3-ethoxy-5-methyl-4-phenoxy-1H-pyrazol-1-yl)-5-ethylpyrimidine] | 0.5 to 5 (≈ 0.162 to 1.62 µg/mL) |
| COc1cc(C2CC2)cnc1-n1nc(OC(C)C)c(Oc2c(F)cccc2F)c1C [example 189, 5-cyclopropyl-2-(4-(2,6-difluorophenoxy)-3-isopropoxy-5-methyl-1H-pyrazol-1-yl)-3-methoxypyridine] | 0.0005 to 0.05 (≈ 0.000208 to 0.0208 µg/mL) |
| COc1ccc(-n2nc(OC(C)C)c(Oc3c(F)cccc3F)c2C)nc1 [example 126, 2-(4-(2,6-difluorophenoxy)-3-isopropoxy-5-methyl-1H-pyrazol-1-yl)-5-methoxypyridine] | 0.05 to 0.5 (≈ 0.0188 to 0.188 µg/mL) |
| Cc1c(Oc2cccc(F)c2F)c(OC(C)C)nn1-c1ccc(C2CC2)cn1 [example 16, 5-cyclopropyl-2-(4-(2,3-difluorophenoxy)-3-isopropoxy-5-methyl-1H-pyrazol-1-yl)pyridine] | 0.0005 to 0.05 (≈ 0.000193 to 0.0193 µg/mL) |
| CCOc1nn(-c2ccc(C)cn2)c(C)c1Oc1ccccc1 [example 127, 2-(3-ethoxy-5-methyl-4-phenoxy-1H-pyrazol-1-yl)-5-methylpyridine] | 0.5 to 5 (≈ 0.155 to 1.55 µg/mL) |
| CCc1cnc(-n2nc(OC(C)C)c(Oc3ccc(F)cc3F)c2C)nc1 [example 61, 2-(4-(2,4-difluorophenoxy)-3-isopropoxy-5-methyl-1H-pyrazol-1-yl)-5-ethylpyrimidine] | 0.0005 to 0.05 (≈ 0.000187 to 0.0187 µg/mL) |
| Cc1c(Oc2c(O)cccc2F)c(OC(C)C)nn1-c1ncc(C2CC2)cc1O [example 188, 5-cyclopropyl-2-(4-(2-fluoro-6-hydroxyphenoxy)-3-isopropoxy-5-methyl-1H-pyrazol-1-yl)pyridin-3-ol] | 0.0005 to 0.05 (≈ 0.0002 to 0.02 µg/mL) |
| CCc1cnc(-n2nc(OC(C)C)c(Cc3cccc(F)c3)c2C)nc1 [example 11, 5-ethyl-2-(4-(3-fluorobenzyl)-3-isopropoxy-5-methyl-1H-pyrazol-1-yl)pyrimidine] | 0.0005 to 0.05 (≈ 0.000177 to 0.0177 µg/mL) |
| CCc1cnc(-n2nc(OC(C)C)c(Oc3cccc(F)c3)c2C)nc1 [example 54, 5-ethyl-2-(4-(3-fluorophenoxy)-3-isopropoxy-5-methyl-1H-pyrazol-1-yl)pyrimidine] | 0.05 to 0.5 (≈ 0.0178 to 0.178 µg/mL) |
| CCc1ccc(-n2nc(OC(C)C)c(Oc3c(F)cccc3F)c2C)nc1 [example 9B, 2-(4-(2,6-difluorophenoxy)-3-isopropoxy-5-methyl-1H-pyrazol-1-yl)-5-ethylpyridine] | 0.05 to 0.5 (≈ 0.0187 to 0.187 µg/mL) |
| CCOc1nn(-c2ccc(OC)cn2)c(C)c1Cc1ccccc1 [example 125, 2-(4-benzyl-3-ethoxy-5-methyl-1H-pyrazol-1-yl)-5-methoxypyridine] | 0.5 to 5 (≈ 0.162 to 1.62 µg/mL) |
| Cc1nn(-c2ncc(C3CC3)cn2)c(OC(C)C)c1Cc1ccccc1 [example 22, 2-(4-benzyl-5-isopropoxy-3-methyl-1H-pyrazol-1-yl)-5-cyclopropylpyrimidine] | 0.05 to 0.5 (≈ 0.0174 to 0.174 µg/mL) |
| CC(C)Oc1nn(-c2ncc(C3CC3)cn2)cc1S(=O)(=O)c1ccccc1 [example 183, 5-cyclopropyl-2-(3-isopropoxy-4-(phenylsulfonyl)-1H-pyrazol-1-yl)pyrimidine] | 0.0005 to 0.05 (≈ 0.000192 to 0.0192 µg/mL) |
| CCOc1nn(-c2ncc(CC)cn2)c(C)c1Oc1ccccc1Cl [example 78, 2-(4-(2-chlorophenoxy)-3-ethoxy-5-methyl-1H-pyrazol-1-yl)-5-ethylpyrimidine] | 0.05 to 0.5 (≈ 0.0179 to 0.179 µg/mL) |
| CCC(C)Oc1nn(-c2ncc(C3CC3)cn2)c(C)c1Cc1ccccc1 (stereo not drawn) [example 142, 2-(4-benzyl-3-sec-butoxy-5-methyl-1H-pyrazol-1-yl)-5-cyclopropylpyrimidine] | 0.0005 to 0.05 (≈ 0.000181 to 0.0181 µg/mL) |
| CCc1cnc(-n2nc(OC(C)C)c(Oc3cccc(F)c3F)c2C)nc1 [example 77, 2-(4-(2,3-difluorophenoxy)-3-isopropoxy-5-methyl-1H-pyrazol-1-yl)-5-ethylpyrimidine] | 0.05 to 0.5 (≈ 0.0187 to 0.187 µg/mL) |
| CCN(CC)Cc1c(Cc2ccccc2)c(OC(C)C)nn1-c1ncc(C2CC2)cn1 [example 169, N-((4-benzyl-1-(5-cyclopropylpyrimidin-2-yl)-3-isopropoxy-1H-pyrazol-5-yl)methyl)-N-ethylethanamine] | > 5 |

| Structure (SMILES) | MIC50 [µM] |
| --- | --- |
| CCOc1cc(-c2ccc(OC)cc2)n(-c2ccccn2)n1 [example 145, 2-(3-ethoxy-5-(4-methoxyphenyl)-1H-pyrazol-1-yl)pyridine] | > 5 |
| CCCCCc1cnc(-n2nc(OCC)c(Cc3ccccc3)c2C)nc1 [example 28, 2-(4-benzyl-3-ethoxy-5-methyl-1H-pyrazol-1-yl)-5-pentylpyrimidine] | > 5 |
| CCOc1nn(-c2ccccn2)c2c1CCN(Cc1ccccc1)C2 [example 1, 6-benzyl-3-ethoxy-1-(pyridin-2-yl)-4,5,6,7-tetrahydro-1H-pyrazolo[3,4-c]pyridine] | > 5 |
| CCOc1nn(-c2ncccc2F)c(C)c1Cc1ccccc1 [example 37, 2-(4-benzyl-3-ethoxy-5-methyl-1H-pyrazol-yl)-3-fluoropyridine] | > 5 |
| CCOc1nn(-c2ccc(OC)cc2)cc1Cc1ccccc1 [example 164, 4-benzyl-3-ethoxy-1-(4-methoxyphenyl)-1H-pyrazole] | > 5 |
| CCOc1nn(-c2ncc(CC)c(Cc3ccccc3)n2)cc1I [example 167, 4-benzyl-2-(3-ethoxy-4-iodo-1H-pyrazol-1-yl)-5-ethylpyrimidine] | 0.5 to 5 (≈ 0.217 to 2.17 µg/mL) |
| CCOc1nn(-c2ccc(C3CC3)cn2)c(C)c1C(C)(O)c1ccccc1 (stereo not drawn) [example 178, 1-(1-(5-cyclopropylpyridin-2-yl)-3-ethoxy-5-methyl-1H-pyrazol-4-yl)-1-phenylethanol] | 0.5 to 5 (≈ 0.182 to 1.82 µg/mL) |
| Cc1c(Oc2c(F)cccc2F)c(OC(C)C)nn1-c1ncc(Br)cn1 [example 58, 5-bromo-2-(4-(2,6-difluorophenoxy)-3-isopropoxy-5-methyl-1H-pyrazol-1-yl)pyrimidine] | 0.0005 to 0.05 (≈ 0.000213 to 0.0213 µg/mL) |
| Cc1c(Cc2ccccc2)c(OC(C)C)nn1-c1ccccn1 [example 165, 2-(4-benzyl-3-isopropoxy-5-methyl-1H-pyrazol-1-yl)pyridine] | > 5 |
| CCOc1nn(-c2ncc(CC)c(C)n2)c(C)c1Cc1ccccc1 [example 175, 2-(4-benzyl-3-ethoxy-5-methyl-1H-pyrazol-1-yl)-5-ethyl-4-methylpyrimidine] | 0.0005 to 0.05 (≈ 0.000168 to 0.0168 µg/mL) |
| CCc1cnc(-n2nc(OCCOCc3ccccc3)c(Cc3ccccc3)c2C)nc1 [example 103, 2-(4-benzyl-3-(2-(benzyloxy)ethoxy)-5-methyl-1H-pyrazol-1-yl)-5-ethylpyrimidine] | 0.0005 to 0.05 (≈ 0.000214 to 0.0214 µg/mL) |
| CCOc1nn(-c2ccccn2)cc1-c1ccc(Cl)cc1 [example 157, 2-(4-(4-chlorophenyl)-3-ethoxy-1H-pyrazol-1-yl)pyridine] | > 5 |
| CC(C)Oc1nn(-c2ccc(C3CC3)cn2)cc1C(O)c1ccccc1 (stereo not drawn) [example 179, (1-(5-cyclopropylpyridin-2-yl)-3-isopropoxy-1H-pyrazol-4-yl)(phenyl)methanol] | 0.05 to 0.5 (≈ 0.0175 to 0.175 µg/mL) |
| CCc1cnc(-n2nc(OC(C)C)c(Oc3c(F)cccc3F)c2C)nc1O [example 117, 2-(4-(2,6-difluorophenoxy)-3-isopropoxy-5-methyl-1H-pyrazol-1-yl)-5-ethylpyrimidin-4-ol] | 0.0005 to 0.05 (≈ 0.000195 to 0.0195 µg/mL) |
| Cc1c(Oc2c(F)cccc2F)c(OC(C)C)nn1-c1ncc(C2CC2)cn1 [example 13, 5-cyclopropyl-2-(4-(2,6-difluorophenoxy)-3-isopropoxy-5-methyl-1H-pyrazol-1-yl)pyrimidine] | 0.0005 to 0.05 (≈ 0.000193 to 0.0193 µg/mL) |
| CCOc1nn(-c2ncc(CC)cn2)c(C)c1Oc1cc(Cl)cc(Cl)c1 [example 79, 2-(4-(3,5-dichlorophenoxy)-3-ethoxy-5-methyl-1H-pyrazol-1-yl)-5-ethylpyrimidine] | 0.5 to 5 (≈ 0.197 to 1.97 µg/mL) |

Reference: patent EP2929883A1, “Pyrazole derivatives as dihydroorotate dehydrogenase (DHODH) inhibitors” (INSTITUT PASTEUR, priority 2014, dated 2015)
